Values of other authors in US20080004343A1, “Stable polymorphs of (E)-N,N-diethyl-2-cyano-3-(3,4-dihydroxy-5-nitrophenyl)acrylamide” (Wockhardt Limited, priority 2006, published 2008).

SMILES | stability under the influence of heat or acids | isomerization to polymorphic form A on standing (standing at room temperature)
CCN(CC)C(=O)C(C#N)=Cc1cc(O)c(O)c([N+](=O)[O-])c1 [(Z)-isomer, N,N-diethyl-2-cyano-3-(3,4-dihydroxy-5-nitrophenyl)acrylamide] | unstable | 
CCN(CC)C(=O)/C(C#N)=C/c1cc(O)c(O)c([N+](=O)[O-])c1 [polymorphic form B, (E)-N,N-diethyl-2-cyano-3-(3,4-dihydroxy-5-nitrophenyl)acrylamide] | unstable | isomerizes slowly to the polymorphic form A
